Entries after “also recorded” stand apart in the source; their conditions may differ. One block for each compound: values may come before it.
Tests used:
[1] = molecular target: T1, purified rat deoxyhypusyl hydroxylase (Rattus norvegicus, UniProt Q5PPJ4); assay: DOHH assay, purified rat deoxyhypusyl hydroxylase, conversion of deoxyhypusine-containing eIF-5A precursor; format: biochemical; conditions: unhydroxylated eIF-5A precursor, purified rat enzyme
T1 construct: probably testis; substrate unhydroxylated eIF-5A precursor
T1 sequence (Q5PPJ4 1-302): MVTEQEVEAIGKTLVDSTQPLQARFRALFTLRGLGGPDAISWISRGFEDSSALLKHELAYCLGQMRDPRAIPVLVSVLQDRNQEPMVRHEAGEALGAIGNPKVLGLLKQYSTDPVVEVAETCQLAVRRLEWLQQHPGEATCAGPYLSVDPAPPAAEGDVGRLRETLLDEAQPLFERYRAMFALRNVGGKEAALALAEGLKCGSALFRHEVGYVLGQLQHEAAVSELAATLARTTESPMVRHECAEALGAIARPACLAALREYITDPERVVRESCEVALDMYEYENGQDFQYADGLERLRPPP
Experimental: The inhibiting effect of a model peptidomimetic, suitable to serve as carrier for hydroxypyridone warheads, on the activity of the purified eIF-5A-hydroxylating enzyme was studied in a cell-free system.
Enzyme activity was purified and determined as described by Abbruzzese et al., J. Biol. Chem. 261:3085-9 (1986), which is hereby incorporated by reference. Briefly, the enzyme is offered labeled deoxyhypusine-containingeIF-5A precursor. Following standard incubation conditions, the conversion into hypusine residues is measured by chromatographic amino acid separation after protein hydrolysis.

certain human cells = conditions: Ekblom et al.; cited from earlier work
[2] = molecular target: T2, purified human prolyl 4-hydroxylase (Homo sapiens, UniProt P13674); assay: Assay of purified human prolyl 4-hydroxylase (14CO2 release from 2-oxoglutarate, cell-free); format: biochemical; conditions: for Prolyl 4-hydroxylase ID50 (purified): purified human enzyme, inhibitory dose that gives 50% reduction of the enzyme-mediated reaction, unit assumed
T2 construct: made in house; host or cells: Spodoptera frugiperda insect cells (baculovirus, co-expression of α- and β-subunits)
Experimental: The effect on the enzyme was determined in a cell-free system by measuring the oxidative decarboxylation of its cofactor 2-oxoglutarate via release of radiolabeled carbon dioxide in a standard reaction mixture also containing ascorbate, ferrous sulfate, and unhydroxylated peptide substrate.
(§1) The inhibitory action of the substances according to the invention, for example on collagen secretion or cell proliferation, can be tested in direct assays of the enzymes mediating the pivotal protein hydroxylations for these biological processes, such as prolyl 4-hydroxylase and deoxyhypusyl hydroxylase. This entails the enzymatic hydroxylation of the appropriate protein precursor, either by the cellular or the purified enzyme, in the presence or absence of compounds of Formulae (I) or (II), with concomitant determination of co-substrate utilization by these enzymes or subsequent isolation of the hydroxylated amino acid and its unhydroxylated precursor. In this manner, the inhibitory potency of any given compound can be measured in the cell-free system, in cell culture, or in tissue, and is expressed as the inhibitory dose that gives a 50% reduction of the enzyme-mediated reaction (ID50). Enzyme is tested in analogy to the method of A. Abbruzzese, H. M. Hanauske-Abel, et al., Biochem. Biophys. Acta, 1077, 159-166 (1991) and of K. Majamaa, H. M. Hanauske-Abel, et al., Eur. J. Biochem. 138, 239-245 (1984), which are hereby incorporated by reference. Table III lists the ID50 values of some of the compounds according to the invention, using purified human prolyl 4-hydroxylase and cellular human deoxyhypusyl hydroxylase as representative protein hydroxylases.
The inhibiting effect of hydroxypyridones on the collagen-hydroxylating enzyme was studied in a cell-free system.
Assay of purified human prolyl 4-hydroxylase
The native α2 β2 -tetrameric enzyme was purified to homogeneity by poly(L-proline) affinity chromatography and DEAE chromatography from the supernatant of Spodoptera frugiperda insect cells cotransfected with recombinant baculovirus transfer vectors for both the human α- and β-subunits. Enzyme activity was determined by trapping of ^14 CO2 released from 2-oxo[1-^14 C][glutarate] according to the procedure of Majamaa, et al., Eur. J. Biochem., 138:239-245 (1984), which is hereby incorporated by reference. Briefly, all incubations were run for 60 minutes at 37° C. in a final volume of 1.0 ml per test sample, containing 0.1 μg enzyme, 0.1 mg heat-denatured (Pro-Pro-Gly)10 ×9 H2 O as hydroxylatable substrate, 0.1 mM 2-oxo[1-^14 C][glutarate] adjusted to 60,000 dpm by mixing with the unlabeled 2-oxoglutarate as cosubstrate, and cofactors (1.6 mM ascorbate, 0.05 mM ferrous sulfate, 0.08 mM dithiothreitol, 2 mg bovine serum albumin, 5 μL catalase). Assays are performed with only one of the active compounds at any given time.

[3] = molecular target: T3, cellular human deoxyhypusyl hydroxylase (Homo sapiens, UniProt Q9BU89); assay: Cellular human deoxyhypusyl hydroxylase (DOHH assay, 3H-spermidine labeling); format: cell-based; conditions: for Deoxyhypusyl hydroxylase ID50 (cellular): cellular human enzyme, inhibitory dose that gives 50% reduction of the enzyme-mediated reaction, unit assumed
T3 construct: endogenous in cells; host or cells: cultured human cells (smooth muscle cells, B-lymphocytes)
T3 sequence (Q9BU89 1-302): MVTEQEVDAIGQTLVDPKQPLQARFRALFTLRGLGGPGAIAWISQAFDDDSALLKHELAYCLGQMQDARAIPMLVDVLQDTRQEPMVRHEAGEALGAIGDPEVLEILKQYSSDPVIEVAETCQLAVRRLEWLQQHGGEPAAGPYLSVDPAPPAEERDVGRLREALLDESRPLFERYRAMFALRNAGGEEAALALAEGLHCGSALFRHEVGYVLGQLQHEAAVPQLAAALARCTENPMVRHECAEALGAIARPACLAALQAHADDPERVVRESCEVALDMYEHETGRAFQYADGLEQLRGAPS
Excerpt: as §1
The inhibiting effect of hydroxypyridones on the eIF-5A-hydroxylating enzyme was studied in cultured human cells (i.e. smooth muscle cells, B-lymphocytes).
The cellular conversion of the precursor deoxyhypusine to the hydroxylated hypusine in cells was examined, after preincubation with the inhibitor for 60 minutes, by labeling the human cells with ^3 H-spermidine (5 μCi/ml) in 25 cm^2 flasks (1×10^6 cells/flask) for 24 hours prior to cell lysis, precipitation with 10% TCA containing 1 mM each of putrescine, spermidine, and spermine, and hydrolysis in 6 N HCl at 110° C. for 16 hours. The hydrolysate was analyzed for labeled amino acids on an amino acid analyzer by published methods (Park et al., J. Biol. Chem., 257:7217-7222 (1982), which is hereby incorporated by reference). The retention of purified hypusine and deoxyhypusine was determined from standards.

[4] = tested on: human SMC from fibroproliferative vascular lesions; assay: Cell proliferation: DNA synthesis (3H-thymidine) in SMC; format: cell-based
Experimental: The effect of the structural hydroxypyridone analog kojic acid is shown for comparison. Serum-stimulated DNA synthesis in SMC was determined by a 4-hour pulse of ^3 H-thymidine given 20 hours after treatment with L-mimosine and kojic acid (filled symbols). Identically treated, but unlabeled cells cultured in parallel, at that time point were washed and returned to fresh culture media without inhibitor for an additional 20 hours prior to otherwise identical labeling with ^3 H-thymidine (open symbols). Data is expressed as ^3 H-thymidine incorporated per cell to compensate for the reduced cell number in the wake of inhibitor treatment.
Inhibition of DNA synthesis was examined by semiautomated methods. SMC were plated at 1×10^4 cells/well in 96-well microtiter plates at least 24 hours prior to the assay. Agents were introduced into normal serum-containing growth media for 20 hours before the cells were pulsed with ^3 H-thymidine (1 μCi/ml) for 4 hours. Cells were collected with a cell harvester and the DNA-incorporated label determined by scintillation counting (Betaplate; Wallac, Inc., Gaithersburg, Md.) (n=6 per point).

[5] = tested on: human umbilical vein endothelial cells (HUVEC); assay: Endothelial cell proliferation (tritiated thymidine incorporation); format: cell-based; conditions: 24 hours
Experimental: Human umbilical vein endothelial cells ("HUVEC") were treated with the specified concentrations of deferiprone (X-axis) for 24 hours prior to evaluating tritiated thymidine (3H-Tdr) incorporation into DNA for 4 hours. The results are expressed per well and the bars at each point reflect the standard error of the mean (S.E.M., n=3). Decreasing 3H-Tdr incorporation would reflect reduced endothelial cells proliferation.
Endothelial cell proliferation was determined by essentially the same methods previously disclosed for the determination of smooth muscle proliferation. Human umbilical vein endothelial cells ("HUVEC") were isolated and subcultured in Medium 199 containing 15% fetal bovine serum ("FBS"), endothelial cell growth factor ("ECGF", 5 ng/ml), heparin (9 μg/ml), and antibiotics. The cells were plated in 96-well dishes at 1×10^4 cells per well and then allowed to attach for 24 hours. The medium was removed, and the cells were changed to media containing deferiprone at 50, 100, 200, or 500 μM. After 24 hours, tritiated thymidine was added to the wells and allowed to incorporate into the DNA for 4 hours prior to isolation of the nuclear DNA by standard methods. The results are expressed as the counts per minute ("cpm") of radioactivity per well, which is proportional to the rate of DNA synthesis during the 4 hour labelling period.

HUVEC = assay: Endothelial cell tube formation on Matrigel; format: cell-based, human; conditions: 24 hours
Experimental: HUVEC form tubes when plated on Matrigel and this is a commonly used as an in vitro model of capillary formation. In the FIG. 10A, it is shown that untreated HUVEC form capillary-like tubes (ARROW) when placed on Matrigel for 24 hours.
Endothelial cell tube formation was determined by plating HUVEC on a thick Matrigel (Becton Dickinson Labware) gel at a density of 5×10^4 cells per well of 24 well dish. Deferiprone was incubated with the cells for 30 minutes in solution prior to applying the cells to the Matrigel. The cells were added to the Matrigel-coated well, and, then 4 hours and 24 hours later, the cells were observed and photographed at a reproducible location.

[6] = orally active; established characteristics; cited from earlier work
protein hydroxylases = assay: Inhibition of protein hydroxylases; format: biochemical; conditions: no data shown
prolyl hydroxylase = conditions: U.S. Pat. No. 4,937,266; cited from earlier work

T2 sequence (P13674 18-534): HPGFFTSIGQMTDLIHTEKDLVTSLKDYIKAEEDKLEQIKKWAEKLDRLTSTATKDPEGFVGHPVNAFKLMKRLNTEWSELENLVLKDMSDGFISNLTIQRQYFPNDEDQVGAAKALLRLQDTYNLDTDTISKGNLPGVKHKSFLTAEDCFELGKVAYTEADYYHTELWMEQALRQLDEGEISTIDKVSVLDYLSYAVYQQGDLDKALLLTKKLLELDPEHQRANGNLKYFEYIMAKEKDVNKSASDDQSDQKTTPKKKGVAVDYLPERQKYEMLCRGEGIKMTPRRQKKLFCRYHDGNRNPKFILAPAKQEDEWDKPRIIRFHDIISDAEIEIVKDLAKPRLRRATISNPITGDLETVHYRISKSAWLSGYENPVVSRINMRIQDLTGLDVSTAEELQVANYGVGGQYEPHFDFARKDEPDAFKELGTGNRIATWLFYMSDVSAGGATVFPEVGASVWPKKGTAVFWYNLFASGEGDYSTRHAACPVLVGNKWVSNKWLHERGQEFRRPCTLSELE
T2 sequence (P07237 18-508 partner): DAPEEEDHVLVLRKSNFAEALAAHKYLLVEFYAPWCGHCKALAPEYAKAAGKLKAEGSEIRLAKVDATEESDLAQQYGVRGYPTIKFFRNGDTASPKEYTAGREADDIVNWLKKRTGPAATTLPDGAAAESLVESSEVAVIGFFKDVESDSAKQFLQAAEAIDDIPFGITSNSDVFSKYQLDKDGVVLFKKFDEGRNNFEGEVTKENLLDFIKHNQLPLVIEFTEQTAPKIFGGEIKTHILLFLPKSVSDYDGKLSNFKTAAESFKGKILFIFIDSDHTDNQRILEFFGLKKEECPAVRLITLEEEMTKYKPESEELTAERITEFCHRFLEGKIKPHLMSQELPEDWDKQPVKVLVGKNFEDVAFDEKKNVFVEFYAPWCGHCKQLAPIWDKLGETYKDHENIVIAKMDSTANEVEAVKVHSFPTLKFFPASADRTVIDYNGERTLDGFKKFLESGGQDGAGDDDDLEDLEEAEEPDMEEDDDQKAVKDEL

SMILES: NC(CO)C1CCC(=O)NC(CO)C(=O)N(C(Cc2ccccc2)C(=O)O)NC1=O (stereo not drawn) [Mimetic A]
deoxyhypusine-to-hypusine conversion / inhibition of purified deoxyhypusyl hydroxylase [1]: only weakly inhibitory
deoxyhypusine-to-hypusine conversion / inhibition of purified deoxyhypusyl hydroxylase ([1]; listed as mimetic A): suppressed

SMILES: Cc1ncc(CO)c(C=NNC(=O)c2ccncc2)c1O [pyridoxal isonicotinyl hydrazone]
effect on proliferation of certain human cells (certain human cells): stimulates the proliferation

SMILES: CCOC(=O)[C@@H](N)Cn1ccc(=O)c(O)c1 [--ethyl ester]
Prolyl 4-hydroxylase ID50 (purified) [2]: 145 µM

SMILES: O=c1cc(CO)occ1O [kojic acid, reference compound]
inhibition of endothelial cell proliferation ([5]; FIG. 9): does not inhibit EC proliferation
inhibition of protein hydroxylases (protein hydroxylases): does not inhibit protein hydroxylases

SMILES: CC(C)(CO)[C@@H](O)C(=O)NCCC(=O)NCCSSCCNC(=O)CCNC(=O)[C@H](O)C(C)(C)CO [pantethine]
effect on increased prolyl hydroxylase activity in liver with hepatic fibrosis (prolyl hydroxylase): inhibited an increased prolyl hydroxylase activity

Second part, led by results:

Prolyl 4-hydroxylase ID50 (purified) [2]: 145 µM
Deoxyhypusyl hydroxylase ID50 (cellular) [3]: 50 µM
SMILES: CCc1c(O)c(=O)ccn1CC [HK-2]

inhibition of purified human prolyl 4-hydroxylase ([2]; cell-free system, FIG. 1): directly inhibit
Prolyl 4-hydroxylase ID50 (purified) [2]: 133 µM
inhibition of deoxyhypusyl hydroxylase ([3]; FIG. 3, assayed in vitro): directly inhibit
Deoxyhypusyl hydroxylase ID50 (cellular) [3]: 90 µM
SMILES: Cc1c(O)c(=O)ccn1C [HK-1, 1,2-dimethyl-3-hydroxypyrid-4-one]
non-specific or toxic effects ([4]; FIGS. 6, 7): did not result from non-specific or toxic effects
reversibility of suppressive effects (collagen secretion, onset of DNA synthesis) ([4]; upon removal of compound): reversible
inhibition of endothelial cell proliferation ([5]; FIG. 9, listed as deferiprone): blocks the proliferation; also recorded: inhibit endothelial cell proliferation
appearance / viability of treated HUVEC on Matrigel (HUVEC; FIG. 10B): remain healthy and viable in appearance
formation of capillary-like tubes on Matrigel (HUVEC; HUVEC, FIG. 10, listed as deferiprone): blocks the formation of tubular structures; also recorded: block the formation of capillary-like structures; also recorded: blocks capillary formation; also recorded: attach and spread, but do not form capillary-like tubes
extraction by the liver from the portal blood [6]: rapidly extracted by the liver from the portal blood

Prolyl 4-hydroxylase ID50 (purified) [2]: 155 µM
Deoxyhypusyl hydroxylase ID50 (cellular) [3]: 50 µM
SMILES: CCCn1ccc(=O)c(O)c1C [HK-27]

Prolyl 4-hydroxylase ID50 (purified) [2]: 130 µM
Deoxyhypusyl hydroxylase ID50 (cellular) [3]: 58 µM
SMILES: CCn1ccc(=O)c(O)c1C [HK-26]

Prolyl 4-hydroxylase ID50 (purified) [2]: 150 µM
Deoxyhypusyl hydroxylase ID50 (cellular) [3]: 50 µM
SMILES: C=CCn1ccc(=O)c(O)c1C [HK-16]

Prolyl 4-hydroxylase ID50 (purified) [2]: 210 µM
Deoxyhypusyl hydroxylase ID50 (cellular) [3]: 60 µM
SMILES: CCOCn1ccc(=O)c(O)c1C [HK-15]
